The source of these data is US10131652B2, “Pyrimidinyloxy benzene derivatives as herbicides” (E. I. DU PONT DE NEMOURS AND COMPANY, priority 2014, dated 2018).

Holding throughout (format): in vivo
Assay [1] deals with Horseweed. Nature of the assay: Test F postemergence plant response. The following applies: scale 0 to 100.
Assay [2] deals with waterhemp_RES1 (ALS & Triazine resistant common waterhemp, Amaranthus rudis). Briefly: Test F postemergence plant response. The following applies: scale 0 to 100. The method, boiled down: (§1)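 Rated visually versus controls, 0 (no effect) to 100 (complete control), after 14–21 days in greenhouse. Compounds were sprayed postemergence on seedlings at 1- to 4-leaf stage, 2–18 cm tall.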

The test system of assay [3] is waterhemp_RES2 (ALS & HPPD resistant common waterhemp, Amaranthus rudis). Nature of the assay: Test F postemergence plant response. The following applies: scale 0 to 100. The method, boiled down:
as §1

Assay [4] deals with canarygrass (Phalaris minor). Nature of the assay: Test E pre-/postemergence plant response. As to conditions: scale 0 to 100, read-out: Plant response rating, Canarygrass; for pest or weed control at 16 g/ha: 16 g ai/ha; for pest or weed control at 31 g/ha: 31 g ai/ha; for pest or weed control at 62 g/ha: 62 g ai/ha; for pest or weed control at 125 g/ha: 125 g ai/ha. The method, boiled down:
(§2)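 Visual scores on a 0–100 scale (100 = complete control) were assigned against untreated controls 7–21 days after treatment in a controlled environment. Compounds, formulated with solvent plus surfactant, were applied to pre-emergence silt-loam sowings or to 1- to 4-leaf plants (2–18 cm) in potting medium.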

Assay [5] concerns blackgrass (Alopecurus myosuroides). Briefly: Test E pre-/postemergence plant response. As to conditions: scale 0 to 100, read-out: Plant response rating, Blackgrass; for pest or weed control at 16 g/ha: 16 g ai/ha; for pest or weed control at 31 g/ha: 31 g ai/ha; for pest or weed control at 62 g/ha: 62 g ai/ha; for pest or weed control at 125 g/ha: 125 g ai/ha. Summed up: as §2

Assay [6] relates to bluegrass (annual bluegrass, Poa annua). Nature of the assay: Test E pre-/postemergence plant response. The following applies: scale 0 to 100, read-out: Plant response rating, Bluegrass; for pest or weed control at 16 g/ha: 16 g ai/ha; for pest or weed control at 31 g/ha: 31 g ai/ha; for pest or weed control at 62 g/ha: 62 g ai/ha; for pest or weed control at 125 g/ha: 125 g ai/ha. The method, boiled down: as §2

The test system of assay [7] is spring barley (Hordeum vulgare). Nature of the assay: Test E pre-/postemergence plant response. As to conditions: for plant injury at 16 g/ha: 16 g ai/ha; for plant injury at 31 g/ha: 31 g ai/ha; for plant injury at 62 g/ha: 62 g ai/ha; for plant injury at 125 g/ha: 125 g ai/ha. Summed up:
as §2

In assay [8] the test system is winter wheat (Triticum aestivum). Nature of the assay: Test E pre-/postemergence plant response. The following applies: scale 0 to 100, read-out: Plant response rating, Wheat, Winter; for plant injury at 16 g/ha: 16 g ai/ha; for plant injury at 62 g/ha: 62 g ai/ha; for plant injury at 125 g/ha: 125 g ai/ha. Summed up: as §2
The mark [9] stands for this setting: post-emergence, Postemergence, scale 0 to 100, read-out: Plant response rating, Barley, Spring.
[10] abbreviates: pre-emergence, Preemergence, scale 0 to 100, read-out: Plant response rating, Barley, Spring.

Read-outs that look alike come from different tables or passages of the source.

In the case of `Fc1ccc(Oc2ncc(Cl)cn2)c(-c2cc(C(F)F)on2)c1Cl` [Compound 96], the “Plant response rating, Horseweed” value in assay [1] (16 g ai/ha Postemergence) is given as 0; in assay [1] (31 g ai/ha Postemergence) it was 0; in assay [1] (62 g ai/ha Postemergence), 0; in assay [1] (125 g ai/ha Postemergence) it was 10. The “Plant response rating, Waterhemp_RES1” value turned out to be 85 in assay [2] (16 g ai/ha Postemergence), 90 in assay [2] (31 g ai/ha Postemergence), 95 in assay [2] (62 g ai/ha Postemergence) and 95 in assay [2] (125 g ai/ha Postemergence). In addition, the “Plant response rating, Waterhemp_RES2” value stood at 85 in assay [3] (16 g ai/ha Postemergence), 90 in assay [3] (31 g ai/ha Postemergence), 90 in assay [3] (62 g ai/ha Postemergence) and 95 in assay [3] (125 g ai/ha Postemergence).

Take `FC(F)c1cc(-c2c(Cl)cccc2Oc2ncc(Cl)cn2)no1` [Compound 179]: the “Plant response rating, Horseweed” value in assay [1] (16 g ai/ha Postemergence) was 0; in assay [1] (31 g ai/ha Postemergence), 0; in assay [1] (62 g ai/ha Postemergence), 10; in assay [1] (125 g ai/ha Postemergence) it was 10. The “Plant response rating, Waterhemp_RES1” value is 90 in assay [2] (16 g ai/ha Postemergence), 90 in assay [2] (31 g ai/ha Postemergence), 100 in assay [2] (62 g ai/ha Postemergence) and 100 in assay [2] (125 g ai/ha Postemergence). Further, the “Plant response rating, Waterhemp_RES2” value in assay [3] (16 g ai/ha Postemergence) is on record as 95; in assay [3] (31 g ai/ha Postemergence), 100; in assay [3] (62 g ai/ha Postemergence), 100; in assay [3] (125 g ai/ha Postemergence), 100.

Regarding `Fc1ccc(Oc2ncc(Cl)cn2)c(-c2cc(C(F)(Cl)Cl)on2)c1` [Compound 221], the “Plant response rating, Horseweed” value in assay [1] (16 g ai/ha Postemergence) is given as 0; in assay [1] (31 g ai/ha Postemergence), 5; in assay [1] (62 g ai/ha Postemergence) it was 10; in assay [1] (125 g ai/ha Postemergence) it was 30. In addition, the “Plant response rating, Waterhemp_RES1” value in assay [2] (16 g ai/ha Postemergence) came to 85; in assay [2] (31 g ai/ha Postemergence), 95; in assay [2] (62 g ai/ha Postemergence), 100; in assay [2] (125 g ai/ha Postemergence), 98. For the same compound, the “Plant response rating, Waterhemp_RES2” value turned out to be 90 in assay [3] (16 g ai/ha Postemergence), 98 in assay [3] (31 g ai/ha Postemergence), 95 in assay [3] (62 g ai/ha Postemergence) and 100 in assay [3] (125 g ai/ha Postemergence).

Consider `Fc1cccc(Oc2ncc(Cl)cn2)c1-c1cc(C(F)F)on1` [Compound 55, 5-chloro-2-[2-[5-(difluoromethyl)-3-isoxazolyl]-3-fluorophenoxy]pyrimidine], for which the results for the “Plant response rating, Horseweed” value in assay [1] (31 g ai/ha Postemergence) and in assay [1] (62 g ai/ha Postemergence) were 15 and 20, respectively. Besides, the “Plant response rating, Waterhemp_RES1” value in assay [2] (31 g ai/ha Postemergence) and in assay [2] (62 g ai/ha Postemergence) was 100 in each case. In addition, the “Plant response rating, Waterhemp_RES2” value in assay [3] (31 g ai/ha Postemergence) and in assay [3] (62 g ai/ha Postemergence) was 100 throughout. The pest or weed control at 16 g/ha was found to be 10% in assay [4] (post-emergence, Postemergence); 10% in assay [4] (pre-emergence, Preemergence); 5% in assay [5] (post-emergence, Postemergence); 0% in assay [5] (pre-emergence, Preemergence); 0% in assay [6] (post-emergence, Postemergence); 0% in assay [6] (pre-emergence, Preemergence). Also, the pest or weed control at 31 g/ha worked out at 20% in assay [4] (post-emergence, Postemergence); 20% in assay [4] (pre-emergence, Preemergence); 10% in assay [5] (post-emergence, Postemergence); 15% in assay [5] (pre-emergence, Preemergence); 0% in assay [6] (post-emergence, Postemergence); 10% in assay [6] (pre-emergence, Preemergence). Moreover, the pest or weed control at 62 g/ha in assay [4] (post-emergence, Postemergence) stood at 30%; in assay [4] (pre-emergence, Preemergence), 100%; in assay [5] (post-emergence, Postemergence), 20%; in assay [5] (pre-emergence, Preemergence) it was 60%; in assay [6] (post-emergence, Postemergence), 15%; in assay [6] (pre-emergence, Preemergence), 10%. The pest or weed control at 125 g/ha in assay [4] (post-emergence, Postemergence) is 30%; in assay [4] (pre-emergence, Preemergence), 100%; in assay [5] (post-emergence, Postemergence), 40%; in assay [5] (pre-emergence, Preemergence), 100%; in assay [6] (post-emergence, Postemergence), 25%; in assay [6] (pre-emergence, Preemergence), 100%. For the same compound, the plant injury at 16 g/ha in assay [7] (setting [9]) amounted to 10%; in assay [7] (setting [10]) it was 10%; in assay [8] (post-emergence, Postemergence), 0%; in assay [8] (pre-emergence, Preemergence) it was 5%. For the same compound, the plant injury at 31 g/ha in assay [7] (setting [9]) was 10%; in assay [7] (setting [10]), 10%; in assay [8] (post-emergence, 31 g ai/ha, Postemergence), 15%. Moreover, the plant injury at 62 g/ha in assay [7] (setting [9]) turned out to be 15%; in assay [7] (setting [10]) it was 45%; in assay [8] (post-emergence, Postemergence) it was 30%; in assay [8] (pre-emergence, Preemergence), 10%. Further, the plant injury at 125 g/ha turned out to be 20% in assay [7] (post-emergence, Postemergence, scale 0 to 100 (0 no effect, 100 complete control), read-out: Plant response rating, Barley, Spring); 50% in assay [7] (setting [10]); 40% in assay [8] (post-emergence, Postemergence); 20% in assay [8] (pre-emergence, Preemergence).

With `CC(F)(F)c1cc(-c2ccccc2Oc2ncc(Br)cn2)no1` [Compound 149], the “Plant response rating, Horseweed” value in assay [1] (16 g ai/ha Postemergence) stood at 0; in assay [1] (31 g ai/ha Postemergence) it was 20; in assay [1] (62 g ai/ha Postemergence) it was 10; in assay [1] (125 g ai/ha Postemergence), 20. In addition, the “Plant response rating, Waterhemp_RES1” value in assay [2] (16 g ai/ha Postemergence) turned out to be 80; in assay [2] (31 g ai/ha Postemergence), 85; in assay [2] (62 g ai/ha Postemergence) it was 90; in assay [2] (125 g ai/ha Postemergence), 100. Moreover, the “Plant response rating, Waterhemp_RES2” value is listed as 95 in assay [3] (16 g ai/ha Postemergence), 95 in assay [3] (31 g ai/ha Postemergence), 100 in assay [3] (62 g ai/ha Postemergence) and 100 in assay [3] (125 g ai/ha Postemergence).

On to `FC(F)c1cc(-c2ccccc2Oc2ncc(Br)cn2)on1` [Compound 212], for which the “Plant response rating, Horseweed” value is listed as 0 in assay [1] (16 g ai/ha Postemergence), 0 in assay [1] (31 g ai/ha Postemergence), 15 in assay [1] (62 g ai/ha Postemergence) and 10 in assay [1] (125 g ai/ha Postemergence). Further, the “Plant response rating, Waterhemp_RES1” value in assay [2] (16 g ai/ha Postemergence) worked out at 70; in assay [2] (31 g ai/ha Postemergence), 80; in assay [2] (62 g ai/ha Postemergence), 95; in assay [2] (125 g ai/ha Postemergence) it was 98. Besides, the “Plant response rating, Waterhemp_RES2” value in assay [3] (16 g ai/ha Postemergence) was 70; in assay [3] (31 g ai/ha Postemergence), 95; in assay [3] (62 g ai/ha Postemergence), 98; in assay [3] (125 g ai/ha Postemergence) it was 100.
